Data published in patent publication US20240285571A1, “METHODS OF TREATING BONE INFECTIONS” (MICROBION CORPORATION, priority 2020, published 2024).
Read-outs that look alike come from different tables or passages of the source. One block for each compound: values may come before it.

How the values were obtained:
[1] = system: C. difficile; experiment: Agar dilution MIC, anaerobes (Example 5); type: cell-based, Clostridium difficile; conditions: Clostridioides difficile
[2] = system: S. aureus; experiment: Broth microdilution MIC (Example 5); type: cell-based, Staphylococcus aureus; conditions: Staphylococcus aureus
In short: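 CLSI broth microdilution; two-fold serial dilutions, drug-free growth-control wells. Inoculum 0.5 McFarland, diluted 1:20 in media, then a further 1:20 in wells.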

[3] = system: C. albicans; experiment: Broth microdilution MIC, yeast (Example 5); type: cell-based; conditions: Candida albicans, Sensitive
Experimental: (§1) Test and Comparator Agents: The test agents were stored at room temperature until assayed. All test agents were suspended and diluted in 100% dimethylsulfoxide (DMSO), and were ultimately tested at a final concentration of 0.06-64 μg/mL. The stock solutions were allowed to stand for at least 1 hr prior to use to auto-sterilize.
(§2) The susceptibility of yeast isolates was determined by broth microdilution in RPMI medium (HyClone Laboratories, Logan, UT; Lot No. AZC184041B) buffered with 0.165 M MOPS (Calbiochem, Billerica, MA; Lot No. 2694962). The pH of the medium was adjusted to 7.0 with 1 N NaOH, sterile filtered using a 0.2 μm PES filter, and stored at 4° C. until used.
(§3) Broth Microdilution MC Testing (Aerobic Bacteria and Yeast): The broth microdilution assay method employed for the susceptibility testing of aerobic bacteria (excluding N. gonorrhoeae which was evaluated by agar dilution) and yeast essentially followed the procedures described by CLSI (3, 4, 7, 8) and employed automated liquid handlers to conduct serial dilutions and liquid transfers. Automated liquid handlers included the Multidrop 384 (Labsystems, Helsinki, Finland) and Biomek 2000 (Beckman Coulter, Fullerton CA). The wells in columns 2-12 in standard 96-well microdilution plates (Costar 3795) were filled with 150 μl of the correct diluent. These would become the ‘mother plates’ from which ‘daughter’ or test plates would be prepared. The drugs (300 μL at 40× the desired top concentration in the test plates) were dispensed into the appropriate well in Column 1 of the mother plates. The Biomek 2000 was used to make serial two-fold dilutions through Column 11 in the “mother plate”. The wells of Column 12 contained no drug and ultimately served as the organism growth control wells.
(§4) The daughter plates were loaded with 185 μL per well of the appropriate test media using the Multidrop 384. The daughter plates were prepared using the Biomek FX which transferred 5 μL of drug solution from each well of a mother plate to the corresponding well of the correct daughter plate in a single step.
(§5) A standardized inoculum of each organism was prepared per CLSI methods (3, 7). Isolated colonies of each test isolate were picked from the primary plate and a suspension was prepared to equal a 0.5 McFarland turbidity standard. Standardized suspensions were then diluted […] (1:100 for yeast, 1:20 for bacteria). After dilution, the inoculum suspensions were then transferred to compartments of sterile reservoirs divided by length (Beckman Coulter), and the Biomek 2000 was used to inoculate all plates. Daughter plates were placed on the Biomek 2000 in reverse orientation so that plates were inoculated from low to high drug concentration.
(§6) The Biomek 2000 delivered 10 μL of standardized inoculum into each well of the appropriate daughter plate for an additional 1:20 dilution. […] The final concentration of DMSO (if used as a solvent) in the test well was 2.5%.
(§7) Plates were stacked 4 high, covered with a lid on the top plate, placed into plastic bags, and incubated at 35° C. for approximately 24-48 hr for all yeast isolates and 16-24 hr for aerobic bacteria. Plates were viewed from the bottom using a plate viewer. […] MIC endpoints for the test agents and control compounds were read per CLSI criteria (3, 7).

[4] = system: C. parapsilosis; experiment: Broth microdilution MIC, yeast (Example 5); type: cell-based; conditions: Lodderomyces parapsilosis
Experimental: as §1, §2, §3, §4, §5, §6, §7

[5] = system: C. tropicalis; experiment: Broth microdilution MIC, yeast (Example 5); type: cell-based; conditions: Candida tropicalis, FLUR
Experimental: as §1, §2, §3, §4, §5, §6, §7

[6] = system: C. glabrata; experiment: Broth microdilution MIC, yeast (Example 5); type: cell-based; conditions: Nakaseomyces glabratus, FLUR
Experimental: as §1, §2, §3, §4, §5, §6, §7

[7] = system: MDR P. aeruginosa; experiment: MIC against CF isolates (Example 7, Table 18); type: cell-based; conditions: Pseudomonas aeruginosa, Multi-drug resistant
[8] = ATCC700057, C. difficile MMX 4381 (ATCC 700057), QC, CCI
[9] = C. difficile MMX 8272, ribotype 255, CCI
[10] = C. difficile MMX 8279, ribotype 005, CCR
[11] = C. difficile MMX 8281, ribotype 010, CCR
[12] = NCTC13307, C. difficile MMX 5681 (NCTC 13307), ribotype 012, CCR
[13] = NCTC13336, C. difficile MMX 5680 (NCTC 13336), ribotype 027, CCI METR
[14] = ATCC 29213 / MSSA, S. aureus MMX 101 (ATCC 29213), QC, MSSA
[15] = 24 h, C. parapsilosis MMX 7370, FLUR
[16] = 24 h, C. parapsilosis MMX 7555, FLUR
[17] = 48 h, C. parapsilosis MMX 7370, FLUR
[18] = 48 h, C. parapsilosis MMX 7555, FLUR
[19] = ATCC22019, 24 h, C. parapsilosis MMX 2323 (ATCC 22019), QC, 24 hr
[20] = ATCC22019, 48 h, C. parapsilosis MMX 2323 (ATCC 22019), QC, 48 hr

Compound: OCC(S)CS.[Bi] (centres unmarked) [MB-2B, bismuth-2,3-dimercaptopropanol]
- MIC [1, 8]: 8 mg/L
- MIC [1, 9]: 8 mg/L
- MIC [1, 10]: 16 mg/L
- MIC [1, 11]: 8 mg/L
- MIC [1, 12]: 8 mg/L
- MIC [1, 13]: 2 mg/L
- MIC [2, 14]: 0.5 mg/L
- MIC ([2]; MRSA, S. aureus MMX 5373): ≤ 0.06 mg/L
- MIC ([2]; MRSA, S. aureus MMX 6311): ≤ 0.06 mg/L
- MIC ([2]; MRSA, S. aureus MMX 9203): 0.25 mg/L
- MIC ([2]; MRSA, S. aureus MMX 9204): ≤ 0.06 mg/L
- MIC ([2]; MRSA, S. aureus MMX 9205): ≤ 0.06 mg/L
- MIC ([2]; MRSA, read-out: MIC values against MRSA, MRSA isolates (Table 5)): < 0.06 mg/L
- MIC ([3]; 24 h, C. albicans MMX 7039): 2 mg/L
- MIC ([3]; 24 h, C. albicans MMX 7055): 1 mg/L
- MIC ([3]; 48 h, C. albicans MMX 7039): 2 mg/L
- MIC ([3]; 48 h, C. albicans MMX 7055): 4 mg/L
- MIC [4, 15]: 0.5 mg/L
- MIC [4, 16]: 0.25 mg/L
- MIC [4, 17]: 0.5 mg/L
- MIC [4, 18]: 1 mg/L
- MIC [4, 19]: 0.5 mg/L
- MIC [4, 20]: 1 mg/L
- MIC ([5]; 24 h, C. tropicalis MMX 7247): 2 mg/L
- MIC ([5]; 24 h, C. tropicalis MMX 7248): 4 mg/L
- MIC ([5]; 24 h, C. tropicalis MMX 7360): 1 mg/L
- MIC ([5]; 48 h, C. tropicalis MMX 7247): 4 mg/L
- MIC ([5]; 48 h, C. tropicalis MMX 7248): 4 mg/L
- MIC ([5]; 48 h, C. tropicalis MMX 7360): 2 mg/L
- MIC ([6]; 24 h, C. glabrata MMX 7086): 0.5 mg/L
- MIC ([6]; 24 h, C. glabrata MMX 7318): 0.25 mg/L
- MIC ([6]; 48 h, C. glabrata MMX 7086): 1 mg/L
- MIC ([6]; 48 h, C. glabrata MMX 7318): 1 mg/L

- MIC ([7]; strain AGR14, P. aeruginosa): > 64 mg/L
- MIC ([7]; strain MR14, P. aeruginosa): > 64 mg/L
Compound: NCC[C@H](O)C(=O)N[C@@H]1C[C@H](N)[C@@H](O[C@H]2O[C@H](CN)[C@@H](O)[C@H](O)[C@H]2O)[C@H](O)[C@H]1O[C@H]1O[C@H](CO)[C@@H](O)[C@H](N)[C@H]1O [Amikacin]

Compound: CC(S)C(C)S.[Bi] (centres unmarked) [MB-6, bismuth-2,3-butanedithiol]
- MIC [1, 8]: 4 mg/L
- MIC [1, 9]: 2 mg/L
- MIC [1, 10]: 2 mg/L
- MIC [1, 11]: 2 mg/L
- MIC [1, 12]: 2 mg/L
- MIC [1, 13]: 2 mg/L
- MIC [2, 14]: ≤ 0.06 mg/L
- MIC ([2]; MRSA, S. aureus MMX 5373): ≤ 0.06 mg/L
- MIC ([2]; MRSA, S. aureus MMX 6311): ≤ 0.06 mg/L
- MIC ([2]; MRSA, S. aureus MMX 9204): ≤ 0.06 mg/L
- MIC ([2]; MRSA, S. aureus MMX 9205): ≤ 0.06 mg/L
- MIC ([3]; 24 h, C. albicans MMX 7055): 2 mg/L
- MIC ([3]; 48 h, C. albicans MMX 7039): 2 mg/L
- MIC ([3]; 48 h, C. albicans MMX 7055): 2 mg/L
- MIC [4, 15]: 0.25 mg/L
- MIC [4, 16]: 0.25 mg/L
- MIC [4, 17]: 0.5 mg/L
- MIC [4, 18]: 0.5 mg/L
- MIC [4, 19]: 0.5 mg/L
- MIC [4, 20]: 1 mg/L
- MIC ([5]; 24 h, C. tropicalis MMX 7247): 4 mg/L
- MIC ([5]; 24 h, C. tropicalis MMX 7248): 4 mg/L
- MIC ([5]; 24 h, C. tropicalis MMX 7360): 2 mg/L
- MIC ([5]; 48 h, C. tropicalis MMX 7247): 4 mg/L
- MIC ([5]; 48 h, C. tropicalis MMX 7248): 8 mg/L
- MIC ([5]; 48 h, C. tropicalis MMX 7360): 2 mg/L
- MIC ([6]; 24 h, C. glabrata MMX 7086): 0.5 mg/L
- MIC ([6]; 24 h, C. glabrata MMX 7318): 0.25 mg/L
- MIC ([6]; 48 h, C. glabrata MMX 7086): 1 mg/L
- MIC ([6]; 48 h, C. glabrata MMX 7318): 0.5 mg/L
